Measurements taken from patent US11180462B2, “Microbiocidal oxadiazole derivatives” (SYNGENTA PARTICIPATIONS AG, priority 2015, dated 2021).

These compounds were tested on Glomerella lagenarium (Colletotrichum lagenarium) (assay: Fungicidal activity against Glomerella lagenarium (Colletotrichum lagenarium) liquid culture / cucumber / preventative (anthracnose)). Conditions: Colletotrichum orbiculare; 20 ppm in the applied formulation; liquid culture (PDB), growth inhibition measured photometrically after 3 to 4 days; compared to untreated control; read-out: disease control.
Type: cell-based
Protocol: Mycelia fragments or conidia suspensions of a fungus prepared either freshly from liquid cultures of the fungus or from cryogenic storage, are directly mixed into nutrient broth. DMSO solutions of the test compound (max. 10 mg/ml) are diluted with 0.025% Tween20 by a factor of 50 and 10 μl of this solution is pipetted into a microtiter plate (96-well format). The nutrient broth containing the fungal spores/mycelia fragments is then added to give an end concentration of the tested compound. The test plates are incubated in the dark at 24° C. and 96% relative humidity. The inhibition of fungal growth is determined photometrically after 2 to 7 days, depending on the pathosystem, and percent antifungal activity relative to the untreated check is calculated.
Fungicidal activity against Glomerella lagenarium (Colletotrichum lagenarium) liquid culture/cucumber/Preventative (Anthracnose)
Conidia of the fungus from cryogenic storage are directly mixed into nutrient broth (PDB—potato dextrose broth). After placing a (DMSO) solution of test compound into a microtiter plate (96-well format), the nutrient broth containing the fungal spores is added.
The following compounds at 20 ppm in the applied formulation give at least 80% disease control in this test when compared to untreated control under the same conditions, which show extensive disease development.

| Compound | inhibition of growth at 20 ppm [%] |
| --- | --- |
| O=C(N(Cc1ccc(-c2noc(C(F)(F)F)n2)cc1)C1CC1)C1(c2ccccc2)CC1 [Compound 1.96, N-cyclopropyl-1-phenyl-N-[[4-[5-(trifluoromethyl)-1,2,4-oxadiazol-3-yl]phenyl]methyl]-cyclopropane-carboxamide] | ≥ 80 |
| CON(C(=O)c1ccoc1)C(C)c1ccc(-c2noc(C(F)(F)F)n2)cc1 (stereo not shown) [Compound 1.278, N-methoxy-N-[1-[4-[5-(trifluoromethyl)-1,2,4-oxadiazol-3-yl]phenyl]ethyl]furan-3-carboxamide] | ≥ 80 |
| CC=C(C)C(=O)N(OC)C(C)c1ccc(-c2noc(C(F)(F)F)n2)cc1 (stereo not shown) [Compound 1.255, N-methoxy-2-methyl-N-[1-[4-[5-(trifluoromethyl)-1,2,4-oxadiazol-3-yl]phenyl]ethyl]but-2-enamide] | ≥ 80 |
| O=C(C1CC1(F)F)N(Cc1ccc(-c2noc(C(F)(F)F)n2)cc1)OCC=C(Cl)Cl (stereo not shown) [Compound 1.540, N-(3,3-dichloroallyloxy)-2,2-difluoro-N-[[4-[5-(trifluoromethyl)-1,2,4-oxadiazol-3-yl]phenyl]methyl]-cyclopropane-carboxamide] | ≥ 80 |
| CON(Cc1ccc(-c2noc(C(F)(F)F)n2)cc1)C(=O)n1ccnc1 [Compound 1.811, N-methoxy-N-[[4-[5-(trifluoromethyl)-1,2,4-oxadiazol-3-yl]phenyl]methyl]-imidazole-1-carboxamide] | ≥ 80 |
| CON(Cc1ccc(-c2noc(C(F)(F)F)n2)cc1)C(=O)CCc1ccc(Cl)cc1 [Compound 1.18, 3-(4-chlorophenyl)-N-methoxy-N-[[4-[5-(trifluoromethyl)-1,2,4-oxadiazol-3-yl]phenyl]methyl]-propanamide] | ≥ 80 |
| CCC(C)N(Cc1ccc(-c2noc(C(F)(F)F)n2)cc1)C(=O)CC(C)C (stereo not shown) [Compound 1.380, 3-methyl-N-sec-butyl-N-[[4-[5-(trifluoromethyl)-1,2,4-oxadiazol-3-yl]phenyl]methyl]-butanamide] | ≥ 80 |
| CON(Cc1ccc(-c2noc(C(F)(F)F)n2)cc1)C(=O)OCC(C)C [Compound 2.8, isobutyl N-methoxy-N-[[4-[5-(trifluoromethyl)-1,2,4-oxadiazol-3-yl]phenyl]methyl]-carbamate] | ≥ 80 |
| CC1CC1C(=O)N(Cc1ccc(-c2noc(C(F)(F)F)n2)cc1)CC1CCCO1 (stereo not shown) [Compound 1.428, 2-methyl-N-(tetrahydrofuran-2-ylmethyl)-N-[[4-[5-(trifluoromethyl)-1,2,4-oxadiazol-3-yl]phenyl]methyl]-cyclopropane-carboxamide] | ≥ 80 |
| O=C(CCl)N(Cc1ccc(-c2noc(C(F)(F)F)n2)cc1)OCc1ccc(Cl)cc1 [Compound 1.553, 2-chloro-N-[(4-chlorophenyl)-methoxy]-N-[[4-[5-(trifluoromethyl)-1,2,4-oxadiazol-3-yl]phenyl]methyl]-acetamide] | ≥ 80 |
| CCCON(Cc1ccc(-c2noc(C(F)(F)F)n2)cc1)C(=O)C(CC)COC (stereo not shown) [Compound 1.311, 2-(methoxymethyl)-N-propoxy-N-[[4-[5-(trifluoromethyl)-1,2,4-oxadiazol-3-yl]phenyl]methyl]-butanamide] | ≥ 80 |
| CCCCOC(=O)N(Cc1ccc(-c2noc(C(F)(F)F)n2)cc1)OC [Compound 2.12, butyl N-methoxy-N-[[4-[5-(trifluoromethyl)-1,2,4-oxadiazol-3-yl]phenyl]methyl]-carbamate] | ≥ 80 |
| COCCC(=O)N(Cc1ccc(-c2noc(C(F)(F)F)n2)cc1)OCc1ccc(Cl)cc1 [Compound 1.549, N-[(4-chlorophenyl)-methoxy]-3-methoxy-N-[[4-[5-(trifluoromethyl)-1,2,4-oxadiazol-3-yl]phenyl]methyl]-propanamide] | ≥ 80 |
| CCCCON(Cc1ccc(-c2noc(C(F)(F)F)n2)cc1)C(=O)C(C)C [Compound 1.633, N-butoxy-2-methyl-N-[[4-[5-(trifluoromethyl)-1,2,4-oxadiazol-3-yl]phenyl]methyl]-propanamide] | ≥ 80 |
| O=C(C1CC1)N(Cc1ccc(-c2noc(C(F)(F)F)n2)cc1)OCc1ccc(Cl)cc1 [Compound 1.561, N-[(4-chlorophenyl)-methoxy]-N-[[4-[5-(trifluoromethyl)-1,2,4-oxadiazol-3-yl]phenyl]methyl]-cyclopropane-carboxamide] | ≥ 80 |
| CCCCC(=O)N(Cc1ccc(-c2noc(C(F)(F)F)n2)cc1)OCCC [Compound 1.322, N-propoxy-N-[[4-[5-(trifluoromethyl)-1,2,4-oxadiazol-3-yl]phenyl]methyl]-pentanamide] | ≥ 80 |

| Compound | inhibition of growth at 20 ppm [%] |
| --- | --- |
| O=C(C1CC1(Cl)Cl)N(Cc1ccc(-c2noc(C(F)(F)F)n2)cc1)CC1CC1 (stereo not shown) [Compound 1.232, 2.2-dichloro-N-(cyclopropylmethyl)-N-[[4-[5-(trifluoromethyl)-1,2,4-oxadiazol-3-yl]phenyl]methyl]-cyclopropane-carboxamide] | ≥ 80 |
| O=C(Cc1ccccc1Cl)N(Cc1ccc(-c2noc(C(F)(F)F)n2)cc1)C1CC1 [Compound 1.94, 2-(2-chlorophenyl)-N-cyclopropyl-N-[[4-[5-(trifluoromethyl)-1,2,4-oxadiazol-3-yl]phenyl]methyl]-acetamide] | ≥ 80 |
| COc1cccc(C2(C(=O)N(Cc3ccc(-c4noc(C(F)(F)F)n4)cc3)OC)CC2)c1 [Compound 1.72, N-methoxy-1-(3-methoxyphenyl)-N-[[4-[5-(trifluoromethyl)-1,2,4-oxadiazol-3-yl]phenyl]methyl]-cyclopropane-carboxamide] | ≥ 80 |
| COCCC(=O)N(Cc1ccc(-c2noc(C(F)(F)F)n2)cc1)OCC=C(Cl)Cl [Compound 1.533, N-(3,3-dichloroallyloxy)-3-methoxy-N-[[4-[5-(trifluoromethyl)-1,2,4-oxadiazol-3-yl]phenyl]methyl]-propanamide] | ≥ 80 |
| CCCCON(Cc1ccc(-c2noc(C(F)(F)F)n2)cc1)C(=O)C1CCC1 [Compound 1.638, N-butoxy-N-[[4-[5-(trifluoromethyl)-1,2,4-oxadiazol-3-yl]phenyl]methyl]-cyclobutane-carboxamide] | ≥ 80 |
| CC1CC1C(=O)N(Cc1ccc(-c2noc(C(F)(F)F)n2)cc1)OCC=C(Cl)Cl (stereo not shown) [Compound 1.536, N-(3,3-dichloroallyloxy)-2-methyl-N-[[4-[5-(trifluoromethyl)-1,2,4-oxadiazol-3-yl]phenyl]methyl]-cyclopropane-carboxamide] | ≥ 80 |
| O=C(C1CC1F)N(Cc1ccc(-c2noc(C(F)(F)F)n2)cc1)OCc1ccc(Cl)cc1 (stereo not shown) [Compound 1.558, N-[(4-chlorophenyl)-methoxy]-2-fluoro-N-[[4-[5-(trifluoromethyl)-1,2,4-oxadiazol-3-yl]phenyl]methyl]-cyclopropane-carboxamide] | ≥ 80 |
| O=C(C1OCCO1)N(Cc1ccc(-c2noc(C(F)(F)F)n2)cc1)OCc1ccc(Cl)cc1 [Compound 1.560, N-[(4-chlorophenyl)-methoxy]-N-[[4-[5-(trifluoromethyl)-1,2,4-oxadiazol-3-yl]phenyl]methyl]-1,3-dioxolane-2-carboxamide] | ≥ 80 |
| CCC(C)N(Cc1ccc(-c2noc(C(F)(F)F)n2)cc1)C(=O)C1CC1C (stereo not shown) [Compound 1.385, 2-methyl-N-sec-butyl-N-[[4-[5-(trifluoromethyl)-1,2,4-oxadiazol-3-yl]phenyl]methyl]-cyclopropane-carboxamide] | ≥ 80 |
| CC1(C)CC1C(=O)N(Cc1ccc(-c2noc(C(F)(F)F)n2)cc1)CC1CC1 (stereo not shown) [Compound 1.231, N-(cyclopropylmethyl)-2,2-dimethyl-N-[[4-[5-(trifluoromethyl)-1,2,4-oxadiazol-3-yl]phenyl]methyl]-cyclopropane-carboxamide] | ≥ 80 |
| CON(Cc1ccc(-c2noc(C(F)(F)F)n2)cc1)C(=O)c1cc2c(cc1Br)OCO2 [Compound 1.55, 6-bromo-N-methoxy-N-[[4-[5-(trifluoromethyl)-1,2,4-oxadiazol-3-yl]phenyl]methyl]-1,3-benzoxlioxole-5-carboxamide] | ≥ 80 |
| COc1ccc(C2(C(=O)N(Cc3ccc(-c4noc(C(F)(F)F)n4)cc3)OC)CC2)cc1 [Compound 1.74, N-methoxy-1-(4-methoxyphenyl)-N-[[4-[5-(trifluoromethyl)-1,2,4-oxadiazol-3-yl]phenyl]methyl]-cyclopropane-carboxamide] | ≥ 80 |
| CCCCON(Cc1ccc(-c2noc(C(F)(F)F)n2)cc1)C(=O)CC [Compound 1.588, N-butoxy-N-[[4-[5-(trifluoromethyl)-1,2,4-oxadiazol-3-yl]phenyl]methyl]-propanamide] | ≥ 80 |
| C#CCN(Cc1ccc(-c2noc(C(F)(F)F)n2)cc1)C(=O)Cc1ccccc1Cl [Compound 1.163, 2-(2-chlorophenyl)-N-prop-2-ynyl-N-[[4-[5-(trifluoromethyl)-1,2,4-oxadiazol-3-yl]phenyl]methyl]-acetamide] | ≥ 80 |
| CC1(C(=O)N(Cc2ccc(-c3noc(C(F)(F)F)n3)cc2)OCc2ccc(Cl)cc2)COC1 [Compound 1.556, N-[(4-chlorophenyl)-methoxy]-3-methyl-N-[[4-[5-(trifluoromethyl)-1,2,4-oxadiazol-3-yl]phenyl]methyl]-oxetane-3-carboxamide] | ≥ 80 |
